Structures can show the parent of a compound that is named as a salt.
Test system: psoriatic lesions on the patient's elbow, face and scalp
Experiment: Grading of psoriatic lesions in a patient after intravenous enalkiren
Format: in vivo, human
Set-up: key to Right Elbow Lesions lesion severity, lesion ranking: 0: Complete clearing; 1: Minimal severity; 2: Moderately severe; 3: Severe; 4: More severe; key to Right Elbow Lesions erythema, lesion ranking / Face Lesions erythema, lesion ranking / Scalp Lesions erythema, lesion ranking: 0: None; 1: Very Mild: light red/pink; 2: Moderate: red but still not dark in texture; 3: Strong: very red, possibly dark; 4: Extreme: angry red
Experimental: A patient with documented psoriasis received 0.1 mg/kg of enalkiren (H-((beta,beta-dimethyl)-beta-Ala)-(4-OCH3)Phe-His amide of 2(S)-amino-1cyclohexyl-3(R), 4(S)-dihydroxy-6-methylheptane diacetic acid salt)(enalkiren 5.0 mg/5 ml (0.1% concentration), glacial acetic acid 0.91 mg/5ml and sodium chloride 43.9 mg/5 ml in water for injection) intravenously over a 5 minute period, followed 40 minutes later by administration of an additional 0.3 mg/kg of enalkiren intravenously over a 5 minute period. The psoriatic lesions on the patient's elbow, face and scalp were graded prior to treatment and 2, 4 and 7 days following treatment.

[1] = +2 Days after 0.1 mg/kg then 0.3 mg/kg intravenously
[2] = +4 Days after 0.1 mg/kg then 0.3 mg/kg intravenously
[3] = +7 Days after 0.1 mg/kg then 0.3 mg/kg intravenously
[4] = Treatment Day (graded prior to treatment), person with psoriasis

COc1ccc(C[C@H](NC(=O)CC(C)(C)N)C(=O)N[C@@H](Cc2cnc[nH]2)C(=O)N[C@@H](CC2CCCCC2)[C@@H](O)[C@@H](O)CC(C)C)cc1 [Enalkiren, H-((beta,beta-dimethyl)-beta-Ala)-(4-OCH3)Phe-His amide of 2(S)-amino-1cyclohexyl-3(R), 4(S)-dihydroxy-6-methylheptane diacetic acid salt]
Face Lesions erythema, lesion ranking [1]: 3 | Right Elbow Lesions erythema, lesion ranking [1]: 4 | Right Elbow Lesions lesion severity, lesion ranking [1]: 4 | Scalp Lesions erythema, lesion ranking [1]: 4 | Face Lesions erythema, lesion ranking [2]: 2 | Right Elbow Lesions erythema, lesion ranking [2]: 3 | Right Elbow Lesions lesion severity, lesion ranking [2]: 3 | Scalp Lesions erythema, lesion ranking [2]: 3 | Face Lesions erythema, lesion ranking [3]: 2 | Right Elbow Lesions erythema, lesion ranking [3]: 3 | Right Elbow Lesions lesion severity, lesion ranking [3]: 3 | Scalp Lesions erythema, lesion ranking [3]: 3 | Face Lesions erythema, lesion ranking [4]: 3 | Right Elbow Lesions erythema, lesion ranking [4]: 4 | Right Elbow Lesions lesion severity, lesion ranking [4]: 4 | Scalp Lesions erythema, lesion ranking [4]: 4
